Target: human APJ receptor (Homo sapiens (Human), UniProt P35414)
Experiment: [35S]GTPγS binding assay on membranes from CHO cells stably expressing human APJ receptor
Format: biochemical
Conditions: read-out: Activity hAPJ SPA EC50 IP
Procedure, shortened: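 Agonist-driven [35S]GTPγS (0.2 nM) binding was measured over 90 min at room temperature on human APJ-expressing CHO membranes with bead capture, in buffer containing 3 μM GDP, 200 mM NaCl and 5 mM MgCl2 (pH 7.5). Excess unlabelled GTPγS (100 μM) gave nonspecific signal; EC50 from non-linear fits.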

human APJ receptor, sequence (P35414 whole entry): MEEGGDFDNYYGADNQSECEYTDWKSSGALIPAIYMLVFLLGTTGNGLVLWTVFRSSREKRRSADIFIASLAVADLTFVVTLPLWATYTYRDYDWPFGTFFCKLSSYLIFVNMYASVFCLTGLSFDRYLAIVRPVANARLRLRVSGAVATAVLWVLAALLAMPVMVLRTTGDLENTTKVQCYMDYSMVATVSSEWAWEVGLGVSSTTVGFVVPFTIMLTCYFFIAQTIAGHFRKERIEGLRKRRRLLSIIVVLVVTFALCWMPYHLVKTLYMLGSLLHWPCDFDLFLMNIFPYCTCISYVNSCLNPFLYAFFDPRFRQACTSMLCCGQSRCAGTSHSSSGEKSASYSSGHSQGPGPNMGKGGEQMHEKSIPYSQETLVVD

| Compound | EC50 |
| --- | --- |
| (1S,2S)-N-(4-(1,3-dimethoxy-2-propanyl)-5-((2R,5R)-5-methyltetrahydro-2-furanyl)-4H-1,2,4-triazol-3-yl)-1-(5-fluoro-2-pyrimidinyl)-1-(2-propanyloxy)-2-propanesulfonamide or (1S,2S)-N-(4-(1,3-dimethoxy-2-propanyl)-5-((2S,5S)-5-methyltetrahydro-2-furanyl)-4H-1,2,4-triazol-3-yl)-1-(5-fluoro-2-pyrimidinyl)-1-(2-propanyloxy)-2-propanesulfonamide [Example 360.0] | 0.31 µM |
| (1S,2S)-1-isopropoxy-1-(5-methylpyrazin-2-yl)-N-(5-((2S,5S)-5-methyltetrahydrofuran-2-yl)-4-(tetrahydro-2H-pyran-4-yl)-4H-1,2,4-triazol-3-yl)propane-2-sulfonamide or (1S,2S)-1-isopropoxy-1-(5-methylpyrazin-2-yl)-N-(5-((2R,5R)-5-methyltetrahydrofuran-2-yl)-4-(tetrahydro-2H-pyran-4-yl)-4H-1,2,4-triazol-3-yl)propane-2-sulfonamide [Example 262.0] | > 4.2 µM |
| COc1cccc(OC)c1-n1c(NS(=O)(=O)[C@@H](C)[C@H](C)c2cnc(C)cn2)nnc1[C@H]1CCCOC1 (single isomer, unassigned) [Example 135.0, (2S,3R)-N-(4-(2,6-dimethoxyphenyl)-5-((R)-tetrahydro-2H-pyran-3-yl)-4H-1,2,4-triazol-3-yl)-3-(5-methylpyrazin-2-yl)butane-2-sulfonamide or (2S,3R)-N-(4-(2,6-dimethoxyphenyl)-5-((S)-tetrahydro-2H-pyran-3-yl)-4H-1,2,4-triazol-3-yl)-3-(5-methylpyrazin-2-yl)butane-2-sulfonamide] | 0.035 µM |
| CO[C@H](c1ncc(Cl)cn1)[C@H](C)S(=O)(=O)Nc1nnc([C@H]2CCOC2)n1Cc1ccon1 (single isomer, unassigned) [Example 402.0, (1R,2S)-1-(5-chloro-2-pyrimidinyl)-1-methoxy-N-(4-(1,2-oxazol-3-ylmethyl)-5-((3R)-tetrahydro-3-furanyl)-4H-1,2,4-triazol-3-yl)-2-propanesulfonamide or (1R,2S)-1-(5-chloro-2-pyrimidinyl)-1-methoxy-N-(4-(1,2-oxazol-3-ylmethyl)-5-((3S)-tetrahydro-3-furanyl)-4H-1,2,4-triazol-3-yl)-2-propanesulfonamide] | 0.41 µM |
| COc1cccc(OC)c1-n1c(NS(=O)(=O)[C@@H](C)[C@H](O)c2ncc(C)cn2)nnc1[C@H]1CCOC1 (single isomer, unassigned) [Example 141.0, (1R,2S)-N-(4-(2,6-dimethoxyphenyl)-5-((S)-tetrahydrofuran-3-yl)-4H-1,2,4-triazol-3-yl)-1-hydroxy-1-(5-methylpyrimidin-2-yl)propane-2-sulfonamide or (1R,2S)-N-(4-(2,6-dimethoxyphenyl)-5-((R)-tetrahydrofuran-3-yl)-4H-1,2,4-triazol-3-yl)-1-hydroxy-1-(5-methylpyrimidin-2-yl)propane-2-sulfonamide] | 0.2 µM |
| COCCn1c(NS(=O)(=O)[C@@H](C)[C@H](OC)c2ncc(Cl)cn2)nnc1[C@H]1CCOC1 (single isomer, unassigned) [Example 309.0, (1R,2S)-1-(5-chloropyrimidin-2-yl)-1-methoxy-N-(4-(2-methoxyethyl)-5-((R)-tetrahydrofuran-3-yl)-4H-1,2,4-triazol-3-yl)propane-2-sulfonamide or (1R,2S)-1-(5-chloropyrimidin-2-yl)-1-methoxy-N-(4-(2-methoxyethyl)-5-((S)-tetrahydrofuran-3-yl)-4H-1,2,4-triazol-3-yl)propane-2-sulfonamide] | 2.6 µM |
| (2S,3R)-N-(4-(2,6-difluorophenyl)-5-((3S)-tetrahydro-2H-pyran-3-yl)-4H-1,2,4-triazol-3-yl)-3-(5-methyl-2-pyrimidinyl)-2-butanesulfonamide or (2S,3R)-N-(4-(2,6-difluorophenyl)-5-((3R)-tetrahydro-2H-pyran-3-yl)-4H-1,2,4-triazol-3-yl)-3-(5-methyl-2-pyrimidinyl)-2-butanesulfonamide [Example 23.0] | 0.11 µM |
| COc1cccc(OC)c1-n1c(NS(=O)(=O)[C@@H](C)[C@H](C)c2ncc(C)cn2)nnc1[C@H]1CCCCO1 (single isomer, unassigned) [Example 86.0, (2S,3R)-N-(4-(2,6-dimethoxyphenyl)-5-((S)-tetrahydro-2H-pyran-2-yl)-4H-1,2,4-triazol-3-yl)-3-(5-methylpyrimidin-2-yl)butane-2-sulfonamide or (2S,3R)-N-(4-(2,6-dimethoxyphenyl)-5-((R)-tetrahydro-2H-pyran-2-yl)-4H-1,2,4-triazol-3-yl)-3-(5-methylpyrimidin-2-yl)butane-2-sulfonamide] | 0.0021 µM |
| COc1cccc(OC)c1-n1c(NS(=O)(=O)[C@@H](C)[C@H](C)c2ncc(C)cn2)nnc1[C@H]1CN(S(C)(=O)=O)CCO1 (single isomer, unassigned) [Example 231.0] | 0.88 µM |
| (2S,3R)-N-(4-(2,6-dimethoxyphenyl)-5-((R)-1,4-dioxan-2-yl)-4H-1,2,4-triazol-3-yl)-3-(5-methoxypyrazin-2-yl)butane-2-sulfonamide or (2S,3R)-N-(4-(2,6-dimethoxyphenyl)-5-((S)-1,4-dioxan-2-yl)-4H-1,2,4-triazol-3-yl)-3-(5-methoxypyrazin-2-yl)butane-2-sulfonamide [Example 207.0] | 0.0048 µM |
| COCC1(n2c(NS(=O)(=O)[C@@H](C)[C@H](OC)c3ncc(Cl)cn3)nnc2[C@H]2CC[C@@H](C)O2)CC1 (single isomer, unassigned) [Example 285.0, (1R,2S)-1-(5-chloropyrimidin-2-yl)-1-methoxy-N-(4-(1-(methoxymethyl)cyclopropyl)-5-((2S,5S)-5-methyltetrahydrofuran-2-yl)-4H-1,2,4-triazol-3-yl)propane-2-sulfonamide or (1R,2S)-1-(5-chloropyrimidin-2-yl)-1-methoxy-N-(4-(1-(methoxymethyl)cyclopropyl)-5-((2R,5R)-5-methyltetrahydrofuran-2-yl)-4H-1,2,4-triazol-3-yl)propane-2-sulfonamide] | 0.064 µM |
| COc1cccc(OC)c1-n1c(NS(=O)(=O)[C@@H](C)[C@H](OC)c2ncc(Cl)cn2)nnc1[C@H]1CCC(=O)N1 (single isomer, unassigned) [Example 397.0, (1R,2S)-1-(5-chloro-2-pyrimidinyl)-N-(4-(2,6-dimethoxyphenyl)-5-((2R)-5-oxo-2-pyrrolidinyl)-4H-1,2,4-triazol-3-yl)-1-methoxy-2-propanesulfonamide or (1R,2S)-1-(5-chloro-2-pyrimidinyl)-N-(4-(2,6-dimethoxyphenyl)-5-((2S)-5-oxo-2-pyrrolidinyl)-4H-1,2,4-triazol-3-yl)-1-methoxy-2-propanesulfonamide] | 0.16 µM |
| (1S,2S)-N-(4-(1,3-dimethoxy-2-propanyl)-5-((2R,5R)-5-methyltetrahydro-2-furanyl)-4H-1,2,4-triazol-3-yl)-1-(5-methyl-2-pyrimidinyl)-1-(2-propanyloxy)-2-propanesulfonamide or (1S,2S)-N-(4-(1,3-dimethoxy-2-propanyl)-5-((2S,5S)-5-methyltetrahydro-2-furanyl)-4H-1,2,4-triazol-3-yl)-1-(5-methyl-2-pyrimidinyl)-1-(2-propanyloxy)-2-propanesulfonamide [Example 359.0] | 0.011 µM |
